From patent EP4818163A1, “POLYCYCLIC COMPOUND AND USE THEREOF” (Zhejiang Jingke Pharmaceuticals Co., Ltd., priority 2023, dated 2025) come the findings set out here.

Data set [1] addresses c-Kit kinase (Homo sapiens, UniProt P10721). In words: Enzyme activity assay (c-Kit kinase). In kind it is biochemical. How it is done: Biological activity tests were performed on partial compounds synthesized in the above examples and comparative examples below. […]
Data set [2] can be described thus: Preclinical pharmacokinetic test in rats. In kind it is in vivo. To be noted: rat, po; male SD rats, intragastric administration (p.o.), 10 mg/kg, plasma. How it is done:
Healthy adult SD rats, male, aged 6-8 weeks, with a body weight of 200-300 g, purchased from Vital River Company; EDTA-Na2 anticoagulant; and analytical balance, animal weighing scale, magnetic stirrer, refrigerated centrifuge, single-channel manual pipette, and the like.
• 1. Drug preparation: approximately 10 mg of the test sample was accurately weighed and dissolved in 5% DMSO (after conversion), and then 10% solutol HS-15 and 85% normal saline were added. The mixture was subjected to ultrasonic processing and mixed by vortexing to obtain a solution at a concentration of 1 mg/mL, which was freshly prepared before use. 0.2 mL of the sample was transferred into a 1.5 mL centrifuge tube and stored at -80°C for administration solution concentration analysis. • 2. Animal preparation: the rats were fed in rat cages, and fasted (for at least 10 hours) with free access to water one day before the experiment. On the day of experiment, the rats were weighed and marked at the tail respectively. Blank blood samples were collected respectively before drug administration. The blood samples were collected via the tail vein. • 3. Drug administration: • administration route: intragastric administration (p.o.); • administration dose: 10 mg/kg; • administration volume: 10 mL/kg; and • operation procedure: the rat was restrained in an upright position with a left hand wearing bite-resistant gloves, a 16-gauge gavage needle was inserted through the oral cavity into the pharynx and advanced without obvious resistance, and then the drug was then injected into the stomach. • 4. Sample collection: whole blood (0.1 mL) was collected from each test animal before drug administration and at 0.5 hours, 1 hour, 2 hours, 4 hours, 6 hours, 8 hours, 12 hours and 24 hours after drug administration, transferred into EDTA-Na2 anticoagulant tubes, mixed evenly by inverting the tubes 3-4 times, and then centrifuged at 10000 g and 4°C for 5 minutes to separate plasma. The obtained plasma samples were stored at -80°C for later analysis. The blood samples were collected via the tail vein.
Specific operation: the rat was secured in a restrainer to fully expose its tail, the tail was wiped with alcohol to make the surface skin absorb the alcohol, so as to induce obvious venous dilation. A suitable vein was selected from two sides, and the needle was inserted at approximately one-third of the distance from the tail tip. An insulin syringe was used as the injection syringe, the needle was inserted with the bevel facing upward, and the needle was immediately adjusted to a parallel position after piercing the skin. Slight sliding resistance of the needle inside the vessel and blood reflux in the injection syringe indicated successful venous access. Approximately 0.1-0.2 mL of whole blood was drawn. Gentle compression was applied for hemostasis after needle removal.
Preparation of standard curve sample: 25 µL of blank rat plasma was transferred into a centrifuge tube respectively, 25 µL of prepared serial standard solution (prepared in methanol) was added, and then 200 µL of internal standard solution (prepared in methanol) was added. The mixture was mixed by vortexing for 2 minutes, and centrifuged at 10000 g and 4°C for 10 minutes.
Treatment of the unknown plasma sample: 25 µL of drug-containing rat plasma was collected respectively, and then 25 µL of methanol and 200 µL of internal standard solution were added sequentially. The mixture was mixed by vortexing for 2 minutes, and centrifuged at 10000 g and 4°C for 10 minutes. The supernatant was collected for LC/MS/MS detection.
A quantitative detection method for the test compound was established by using a Shimadzu liquid chromatography system and a Triple Quad TM 6500+AB mass spectrometer. A concentration of a parent drug in plasma was determined. Plasma concentration-time curves were plotted, and major pharmacokinetic parameters were calculated via a non-compartmental model in winnonlin Phoenix software. […]

Data set [3] can be described thus: Brain-penetrating pharmacokinetic test. In kind it is in vivo, Sprague-Dawley (SD) rat. The following applies: SD rats, p.o., 10 mg/kg, single administration; for Kp: Sprague-Dawley, rat, brain tissue / plasma, po, read-out: Total drug brain-to-plasma ratio (B/P). As for the experimental part:
Administration vehicle: 5% DMSO+10% Solutol HS15+85% normal saline
Formulation preparation process: an appropriate amount of powder was weighed, an appropriate volume of DMSO was added, and the mixture was mixed by vortexing. Subsequently, an appropriate volume of Solutol solution was added and vortexed, then normal saline was added, and the mixture was subjected to vortexing and ultrasonic processing to form a homogeneous and clear formulation solution.
The experimental animals were fed in an animal room. The animal room was equipped with an air-conditioning system, with adequate ventilation, an indoor temperature was maintained at 20-26°C, and a relative humidity was maintained at 40%-70%. Artificial lighting was applied in the animal room, with a 12-hour light/dark cycle (except for working lights turned on during experimental operations and cleaning). The experimental animals had free access to food and water.
The purchased animals were fed normally for at least 3 days, rats with healthy physical conditions were included in the experiment, and each rat was marked with a tail number. Animals in an oral administration group were fasted overnight one day before drug administration, and fed 4 hours after drug administration, with free access to water.
• Administration route: intragastric administration (p.o.) • Administration concentration: 1 mg/mL • Administration dose: 10 mg/kg • Administration volume: 10 mL/kg • Administration frequency: single administration
Before drug administration, a state of the administration formulation was examined, the homogeneity of the formulation was ensured by vortexing, stirring or shaking, and a theoretical administration volume for each SD rat in every group was calculated according to the following formula. Theoretical; administration volume(mL) = (Dose (mg⋅kg^−1))/(Formulation; concentration(mg⋅mL^−1)) × Body; weight(kg) [formula]
The rats were sampled at 1 hour, 2 hours, 4 hours, 6 hours, 8 hours and 24 hours after drug administration.
Plasma: at each time point, 0.25 mL of whole blood was collected from the jugular vein and transferred into a test tube containing an anticoagulant EDTA-K2 (7 µL, 10% EDTA-K2 solution), placed on wet ice, and centrifuged within 1 hour (2,000 g, 2-8°C, 10 minutes), and then, the plasma was taken. The plasma was stored in a pre-chilled centrifuge tube, rapidly frozen in dry ice, and then stored in an ultra-low temperature refrigerator at -60°C or lower until LC-MS/MS analysis.
Cerebrospinal fluid: the rats were euthanized via a carbon dioxide process, and approximately 60 µL of cerebrospinal fluid was collected by puncture. 1 mL syringe was used, with the bevel of the needle facing upward, the needle tip was inserted into the subarachnoid space in a nearly horizontal position, then the needle was fixed, and the cerebrospinal fluid was slowly aspirated. The collected samples were frozen on dry ice within 30 minutes, and then transferred to an environment at -90°C to -60°C.
Brain tissue: cardiac perfusion was performed first, and then the brain tissue was isolated. Under deep terminal anesthesia, approximately 80 mL of normal saline was used for cardiac perfusion, and residual blood in the brain tissue was flushed out of cerebral circulation. The isolated brain tissue was gently rinsed once with ice-cold normal saline, excess water was removed, weighed, and then transferred to a frozen storage environment at -90°C to -60°C.
A quantitative detection method for the test compound was established by using a Shimadzu liquid chromatography system and a Triple Quad TM 6500+AB mass spectrometer. A concentration of a parent drug in a sample was analyzed. Quality control samples were used for variation control over analysis results, and the accuracy of the quality control samples should fall within the range of 80%-120%.
Pharmacokinetic parameters: Tmax, Cmax, AUC (0-t), AUC (0-∞), T1/2, MRT (0-∞), and the like were calculated by using winnonlin Phoenix 8.1.0.3530. […]

c-Kit kinase, sequence (P10721 26-976): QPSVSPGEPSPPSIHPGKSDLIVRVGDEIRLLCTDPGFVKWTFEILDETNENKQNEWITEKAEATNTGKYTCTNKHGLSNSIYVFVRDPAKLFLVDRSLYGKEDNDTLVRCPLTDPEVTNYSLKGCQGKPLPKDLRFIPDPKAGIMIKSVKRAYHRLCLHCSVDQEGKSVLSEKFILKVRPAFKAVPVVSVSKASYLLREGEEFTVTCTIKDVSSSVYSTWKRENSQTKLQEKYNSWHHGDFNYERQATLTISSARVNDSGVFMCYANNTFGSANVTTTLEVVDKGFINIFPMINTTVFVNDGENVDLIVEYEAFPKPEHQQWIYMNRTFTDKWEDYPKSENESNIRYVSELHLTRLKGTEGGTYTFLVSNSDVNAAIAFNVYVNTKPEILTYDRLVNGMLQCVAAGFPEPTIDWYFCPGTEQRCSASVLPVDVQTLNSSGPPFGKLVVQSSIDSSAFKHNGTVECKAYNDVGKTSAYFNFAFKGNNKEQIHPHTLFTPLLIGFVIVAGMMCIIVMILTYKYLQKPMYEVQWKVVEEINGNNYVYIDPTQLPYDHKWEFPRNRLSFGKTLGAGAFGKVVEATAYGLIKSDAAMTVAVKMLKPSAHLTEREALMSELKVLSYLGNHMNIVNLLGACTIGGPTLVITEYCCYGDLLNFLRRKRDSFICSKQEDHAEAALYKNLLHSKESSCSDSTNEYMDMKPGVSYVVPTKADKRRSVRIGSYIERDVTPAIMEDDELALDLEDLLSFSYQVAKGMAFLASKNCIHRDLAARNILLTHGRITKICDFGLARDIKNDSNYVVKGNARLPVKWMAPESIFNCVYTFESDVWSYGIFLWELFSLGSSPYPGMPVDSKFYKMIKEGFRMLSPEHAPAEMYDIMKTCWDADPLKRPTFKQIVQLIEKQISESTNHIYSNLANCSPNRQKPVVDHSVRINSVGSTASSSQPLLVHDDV

In turn, `[2H]C([2H])(c1ccc(C(=O)Nc2ccc(C(F)(F)F)c(Nc3nc(-c4ccc(F)nc4)cs3)c2)cc1)N1CCN(C)CC1` [Compound T-11] had an IC50 in data set [1] of 3.55 nM.
As to `[2H]C([2H])(c1ccc(C(=O)Nc2ccc(C(F)(F)F)c(Nc3nc(-c4ccc(F)nc4)cs3)c2)c(F)c1)N1CCN(C)CC1` [Compound T-16], in data set [2], the AUC came to 4010 ng·h/mL and the Cmax is 516 ng/mL. Moreover, in data set [3], the “Total drug concentration in brain tissue” value came out at 3129.79 ng·h/mL, the “Total drug concentration in plasma” value is 4012.56 ng·h/mL and the Kp was 0.78. Besides, it took 2.12 nM to reach half-maximal inhibition in data set [1] (IC50).
As for `[2H]C([2H])(c1ccc(C(=O)Nc2ccc(C(F)(F)F)c(Nc3nc(-c4cccnc4)cs3)c2)cc1)N1CCN(C)CC1` [Compound T-12], half-maximal inhibition in data set [1] (IC50) was put at 2.13 nM.
For the molecule `[2H]C([2H])([2H])N1CCN(C([2H])([2H])c2ccc(C(=O)Nc3ccc(C(F)(F)F)c(Nc4nc(-c5ccc(F)nc5)cs4)c3)c(F)c2)CC1` [Compound T-17], in data set [2], the AUC came out at 4290 ng·h/mL and the Cmax came out at 533 ng/mL. Also, the midpoint of inhibition in data set [1], the IC50, lay at 1.35 nM.
For the molecule `[2H]C([2H])([2H])N1CCN(Cc2ccc(C(=O)Nc3ccc(C(F)(F)F)c(Nc4nc(-c5cccnc5)cs4)c3)c(F)c2)CC1` [Compound T-20], in data set [3], the “Total drug concentration in brain tissue” value stood at 3092.40 ng·h/mL, the “Total drug concentration in plasma” value amounted to 4123.20 ng·h/mL and the Kp was determined as 0.75. In data set [1], this molecule returned an IC50 of 2.1 nM.
In the case of `[2H]C([2H])([2H])N1CCN(Cc2ccc(C(=O)Nc3ccc(C(F)(F)F)c(Nc4nc(-c5ccc(F)nc5)cs4)c3)c(F)c2)CC1` [Compound T-19], the IC50 in data set [1] came to 2.11 nM.
`[2H]C([2H])([2H])N1CCN(Cc2ccc(C(=O)Nc3ccc(C)c(Nc4nc(-c5cccnc5)cs4)c3)c(F)c2)CC1` [Compound T-01]: in data set [2], the AUC is 2690 ng·h/mL and the highest level (Cmax) was 419 ng/mL. In addition, in data set [3], the “Total drug concentration in brain tissue” value came to 1370.43 ng·h/mL, the “Total drug concentration in plasma” value came to 2687.12 ng·h/mL and the Kp was 0.51. Also, in data set [1], it took 1.67 nM to reach half-maximal inhibition (IC50).
Consider `[2H]C([2H])([2H])N1CCN(C([2H])([2H])c2ccc(C(=O)Nc3ccc(C(F)(F)F)c(Nc4nc(-c5cccnc5)cs4)c3)cc2)CC1` [Compound T-15], for which the IC50 in data set [1] was 3.56 nM.
For `[2H]C([2H])(c1ccc(C(=O)Nc2ccc(C)c(Nc3nc(-c4cccnc4)cs3)c2)cc1)N1CCN(C)CC1` [Compound T-02], in data set [2], the AUC turned out to be 2370 ng·h/mL and the Cmax amounted to 397 ng/mL.
In data set [2], `Cc1ccc(NC(=O)c2ccc(CN3CCN(C)CC3)cc2)cc1Nc1nc(-c2cccnc2)cs1` [Masitinib, reference compound] came in with an AUC of 1770 ng·h/mL and a Cmax of 321 ng/mL. For the same molecule, in data set [3], the “Total drug concentration in brain tissue” value turned out to be 356.98 ng·h/mL, the “Total drug concentration in plasma” value came out at 1771.48 ng·h/mL and the Kp came out at 0.2.
In data set [2], `[2H]C([2H])([2H])N1CCN(C([2H])([2H])c2ccc(C(=O)Nc3ccc(C)c(Nc4nc(-c5cccnc5)cs4)c3)cc2)CC1` [Compound T-04] returned an AUC of 3260 ng·h/mL and a Cmax of 486 ng/mL.
Take `[2H]C([2H])(c1ccc(C(=O)Nc2ccc(C(F)(F)F)c(Nc3nc(-c4cccnc4)cs3)c2)c(F)c1)N1CCN(C)CC1` [Compound T-21]: in data set [3], the “Total drug concentration in brain tissue” value stood at 2763.22 ng·h/mL, the “Total drug concentration in plasma” value stood at 3891.87 ng·h/mL and the Kp was 0.71. In data set [1], this molecule had an IC50 of 1.36 nM.
For the molecule `[2H]C([2H])([2H])N1CCN(C([2H])([2H])c2ccc(C(=O)Nc3ccc(C)c(Nc4nc(-c5cccnc5)cs4)c3)c(F)c2)CC1` [Compound T-08], in data set [3], the “Total drug concentration in brain tissue” value worked out at 1798.12 ng·h/mL, the “Total drug concentration in plasma” value is 3269.32 ng·h/mL and the Kp was 0.55. The IC50 in data set [1] came out at 3.89 nM.
In data set [2], `[2H]C([2H])([2H])N1CCN(C([2H])([2H])c2ccc(C(=O)Nc3ccc(C(F)(F)F)c(Nc4nc(-c5cccnc5)cs4)c3)c(F)c2)CC1` [Compound T-18] registered an AUC of 4000 ng·h/mL and a Cmax of 501 ng/mL. Further, in data set [1], the IC50 amounted to 3.12 nM.
